{"source": "paper PMC6702965", "about": "“Inhibition of Porcine Viruses by Different Cell-Targeted Antiviral Drugs” (Frontiers in Microbiology, 2019)", "key": {"ASFV": {"test_system": "ASFV", "parameters": "species or system African swine fever virus"}, "MTT cell viability assay [1]": {"test": "MTT cell viability assay", "settings": "pig, IBRS-2 cells"}, "ASFV Ba71V [2]": {"test_system": "ASFV Ba71V", "test": "microbe, parasite or virus in culture", "assay_type": "cell-based, African swine fever virus", "settings": "for IC50: African swine fever virus"}, "ASFV Ba71V [3]": {"test_system": "ASFV Ba71V", "assay_type": "cell-based, African swine fever virus"}, "ASFV Ba71V [4]": {"test_system": "ASFV Ba71V", "assay_type": "cell-based, African swine fever virus", "remark": "listed apart in the source"}, "MTT cell viability assay [5]": {"test": "MTT cell viability assay", "settings": "African green monkey, Vero cells"}, "FMDV [6]": {"test_system": "FMDV", "parameters": "species or system foot and mouth disease virus"}, "ASFV isolate E70": {"test_system": "ASFV isolate E70", "test": "microbe, parasite or virus in culture", "assay_type": "cell-based", "settings": "African swine fever virus, COS, read-out: IC50 on virus yield"}, "MTT cell viability assay [7]": {"test": "MTT cell viability assay", "settings": "African green monkey, COS cells"}, "MTT cell viability assay [8]": {"test": "MTT cell viability assay", "settings": "hamster, BHK cells"}, "FMDV C-S8 [9]": {"test_system": "FMDV C-S8", "test": "microbe, parasite or virus in culture", "assay_type": "cell-based, foot and mouth disease virus"}, "FMDV C-S8 [10]": {"test_system": "FMDV C-S8", "assay_type": "cell-based, foot and mouth disease virus"}, "FMDV C-S8 [11]": {"test_system": "FMDV C-S8", "assay_type": "cell-based, foot and mouth disease virus", "remark": "listed apart in the source"}, "FMDV C-S8 [12]": {"test_system": "FMDV C-S8", "assay_type": "cell-based, foot and mouth disease virus", "remark": "listed apart in the source"}, "FMDV O-UK": {"test_system": "FMDV O-UK", "test": "microbe, parasite or virus in culture", "assay_type": "cell-based, foot and mouth disease virus"}, "VSV Indiana": {"test_system": "VSV Indiana", "test": "microbe, parasite or virus in culture", "assay_type": "cell-based, vesicular stomatitis virus"}, "FMDV C-S8 [13]": {"test_system": "FMDV C-S8", "settings": "mouse, in vivo"}, "ASFV Ba71V [14]": {"test_system": "ASFV Ba71V", "settings": "cited from earlier work"}, "[15]": {"settings": "C57, mouse, in vivo"}, "FMDV C-S8 [16]": {"test_system": "FMDV C-S8", "parameters": "species or system C57 mice", "settings": "mouse, in vivo"}, "SVDV SP93": {"test_system": "SVDV SP93", "test": "microbe, parasite or virus in culture", "assay_type": "cell-based, swine vesicular disease virus"}, "VSV": {"test_system": "VSV", "settings": "cited from earlier work"}, "FMDV [17]": {"test_system": "FMDV", "settings": "cited from earlier work"}, "SVDV": {"test_system": "SVDV", "settings": "ref Vazquez-Calvo et al., 2011; cited from earlier work"}, "[18]": {"settings": "read-out: IC50 on ASFV production"}}, "note": "Where two headings read alike, the source gives them in different places."}
{"smiles": "C/C=C/C/C=C/CCC(=O)[C@H]1O[C@H]1C(N)=O", "note": "[CRL, cerulenin]", "values": [{"measurement": "Direct virucidal effect (virotoxicity)", "setting": "ASFV", "result": "no direct toxicity"}, {"measurement": "CC50 at 24 h", "setting": "MTT cell viability assay [1]", "result": 40, "unit": "µM"}, {"measurement": "IC50", "setting": "ASFV Ba71V [2]; [18]", "result": 9, "unit": "µM"}, {"measurement": "Expression of early virus protein p32", "setting": "ASFV Ba71V [3]", "result": "very low expression"}, {"measurement": "Expression of late ASFV proteins (p17, p12)", "setting": "ASFV Ba71V [3]", "result": "No late ASFV proteins"}, {"measurement": "Effect of time of addition on virus yield", "setting": "ASFV Ba71V [4]", "result": "recovery of virus productivity was observed when CRL was added as early as 0 h after infection"}, {"measurement": "CC50 at 24 h", "setting": "MTT cell viability assay [5]", "result": 45, "unit": "µM"}, {"measurement": "Direct virucidal effect (virotoxicity)", "setting": "FMDV [6]", "result": "no direct toxicity"}, {"measurement": "IC50", "setting": "ASFV isolate E70", "result": 3, "unit": "µM"}, {"measurement": "CC50 at 24 h", "setting": "MTT cell viability assay [7]", "result": 60, "unit": "µM"}, {"measurement": "CC50 at 24 h", "setting": "MTT cell viability assay [8]", "result": 60, "unit": "µM"}]}
{"smiles": "O=C(O)c1cc(O)c(O)c(O)c1", "note": "[G, gallic acid]", "values": [{"measurement": "Inhibition of FMDV growth", "setting": "FMDV C-S8 [9]", "result": "Neither G nor PG inhibited FMDV growth"}]}
{"smiles": "CCCCCCCCCCCCOC(=O)c1cc(O)c(O)c(O)c1", "note": "[LG, lauryl gallate]", "values": [{"measurement": "Direct virucidal effect (virotoxicity)", "setting": "ASFV", "result": "no direct toxicity"}, {"measurement": "CC50 at 24 h", "setting": "MTT cell viability assay [1]", "result": 30, "unit": "µM"}, {"measurement": "Virus yield reduction", "setting": "ASFV Ba71V [2]", "result": "about 3 log.u."}, {"measurement": "IC50", "setting": "ASFV Ba71V [2]; COS, 24 h, read-out: IC50 on virus yield", "result": 0.4, "unit": "µM"}, {"measurement": "IC50", "setting": "ASFV Ba71V [2]; Vero, 24 h, read-out: IC50 on virus yield", "result": 1, "unit": "µM"}, {"measurement": "Amount of intracellular FMDV RNA", "setting": "FMDV C-S8 [10]", "result": "not affected"}, {"measurement": "Extracellular virus (RNA)", "setting": "FMDV C-S8 [10]", "result": "significantly reduced"}, {"measurement": "Positive strand viral RNA synthesis", "setting": "FMDV C-S8 [10]", "result": "transiently inhibited"}, {"measurement": "Time of LG addition up to which virus productivity was blocked", "setting": "FMDV C-S8 [11]", "result": "up to 7 h.p.i."}, {"measurement": "Expression of structural (VP1) and non-structural (3C) FMDV proteins", "setting": "FMDV C-S8 [12]", "result": "significantly reduced"}, {"measurement": "Decrease in virus production", "setting": "FMDV O-UK", "result": "at least 1 log.u."}, {"measurement": "IC50", "setting": "FMDV O-UK; Foot-and-mouth disease virus, read-out: IC50 on virus yield", "result": 700, "unit": "nM"}, {"measurement": "Reduction of virus productivity", "setting": "VSV Indiana", "result": 2, "unit": "log.u."}, {"measurement": "IC50", "setting": "VSV Indiana; Vesicular stomatitis virus, BHK-21, read-out: IC50 on virus yield", "result": 900, "unit": "nM"}, {"measurement": "Body weight", "setting": "FMDV C-S8 [13]", "result": "lower weights"}, {"measurement": "Protection against FMDV challenge", "setting": "FMDV C-S8 [13]", "result": "no protection"}, {"measurement": "Survival rate", "setting": "FMDV C-S8 [13]", "result": 70, "unit": "%"}, {"measurement": "CC50 at 24 h", "setting": "MTT cell viability assay [5]", "result": 45, "unit": "µM"}, {"measurement": "Time of LG addition up to which virus production was inhibited", "setting": "ASFV Ba71V [14]", "result": "up to 5 h.p.i."}, {"measurement": "Non-toxic working concentrations", "setting": "[15]", "result": "up to 200 mg/kg"}, {"measurement": "Viral RNA copies (VRC) in blood, spleen, lung, heart and thymus", "setting": "FMDV C-S8 [16]", "result": "significant reduction"}, {"measurement": "Direct virucidal effect (virotoxicity)", "setting": "FMDV [6]", "result": "no direct toxicity"}, {"measurement": "IC50", "setting": "ASFV isolate E70", "result": 2, "unit": "µM"}, {"measurement": "Reduction of virus productivity", "setting": "SVDV SP93", "result": 1, "unit": "log.u."}, {"measurement": "IC50", "setting": "SVDV SP93; Enterovirus B, read-out: IC50 on virus yield", "result": 1700, "unit": "nM"}, {"measurement": "CC50 at 24 h", "setting": "MTT cell viability assay [7]", "result": 33, "unit": "µM"}, {"measurement": "Decrease in virus production", "setting": "FMDV C-S8 [9]", "result": "at least 1 log.u."}, {"measurement": "Reduction of virus yield", "setting": "FMDV C-S8 [9]", "result": "up to 2 log.u"}, {"measurement": "IC50", "setting": "FMDV C-S8 [9]; Foot-and-mouth disease virus, BHK-21, read-out: IC50 on virus yield", "result": "200 to 2500", "unit": "nM"}, {"measurement": "CC50 at 24 h", "setting": "MTT cell viability assay [8]", "result": 75, "unit": "µM"}]}
{"smiles": "CCCCCCCCOC(=O)c1cc(O)c(O)c(O)c1", "note": "[OG, octyl gallate]", "values": [{"measurement": "Effect on ASFV infection", "setting": "ASFV Ba71V [2]", "result": "inhibitory effect"}, {"measurement": "Reduction of virus yields", "setting": "FMDV C-S8 [9]", "result": 2, "unit": "log.u."}]}
{"smiles": "CCCOC(=O)c1cc(O)c(O)c(O)c1", "note": "[PG, propyl gallate]", "values": [{"measurement": "Inhibition of FMDV growth", "setting": "FMDV C-S8 [9]", "result": "Neither G nor PG inhibited FMDV growth"}]}
{"smiles": "CCCC(CCC)C(=O)O", "note": "[VPA, valproic acid]", "values": [{"measurement": "Direct virucidal effect (virotoxicity)", "setting": "ASFV", "result": "no direct toxicity"}, {"measurement": "IC50", "setting": "ASFV Ba71V [2]; [18]", "result": "2500 to 3000", "unit": "µM"}, {"measurement": "Expression of early virus protein p32", "setting": "ASFV Ba71V [3]", "result": "very low expression"}, {"measurement": "Expression of late ASFV proteins (p17, p12)", "setting": "ASFV Ba71V [3]", "result": "No late ASFV proteins"}, {"measurement": "Effect of time of addition on virus yield", "setting": "ASFV Ba71V [4]", "result": "gradual recovery of virus yields"}, {"measurement": "CC50 at 24 h", "setting": "MTT cell viability assay [5]", "result": 50000, "unit": "µM"}, {"measurement": "Susceptibility of infection to the drug", "setting": "VSV", "result": "susceptible"}, {"measurement": "Direct virucidal effect (virotoxicity)", "setting": "FMDV [6]", "result": "no direct toxicity"}, {"measurement": "Susceptibility of infection to the drug", "setting": "FMDV [17]", "result": "not affected"}, {"measurement": "Susceptibility of infection to the drug", "setting": "SVDV", "result": "not affected"}, {"measurement": "IC50", "setting": "ASFV isolate E70", "result": 2500, "unit": "µM"}]}
